The values that follow come from US20250188110A1, “SPECIFIC SMALL MOLECULE INHIBITORS THAT BLOCK KMT9 METHYLTRANSFERASE ACTIVITY AND FUNCTION” (ALBERT-LUDWIGS-UNIVERSITÄT FREIBURG, priority 2021, published 2025).

The structures appear in SMILES notation. Like-named read-outs stand apart in the source and are kept apart here.

Experiment [1] has as its target T1, KMT9 (Homo sapiens, UniProt Q9Y5N5).
T1 sequence (Q9Y5N5 1-214): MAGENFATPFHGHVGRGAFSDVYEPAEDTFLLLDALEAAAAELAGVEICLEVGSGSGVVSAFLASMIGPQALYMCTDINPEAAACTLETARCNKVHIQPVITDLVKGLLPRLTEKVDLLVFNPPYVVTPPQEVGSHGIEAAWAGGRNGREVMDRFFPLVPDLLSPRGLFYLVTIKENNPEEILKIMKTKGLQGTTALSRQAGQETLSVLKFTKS
T1 sequence (Q9UI30 1-120 isoform Q9UI30-2 partner): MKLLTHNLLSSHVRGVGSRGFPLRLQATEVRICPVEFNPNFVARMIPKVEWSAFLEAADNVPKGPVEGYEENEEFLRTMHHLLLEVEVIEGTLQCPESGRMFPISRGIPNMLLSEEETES
As to the kind of experiment: Microscale thermophoresis (MST) KMT9 binding. A digest of the protocol: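 His-tagged KMT9 (20 nM), RED-Tris-NTA labelled, titrated with varying compound concentrations in 25 mM HEPES pH 7.5, 100 mM NaCl, 1 mM DTT, 0.05% Tween. MST at 40% MST and 100% LED power, Nano-RED excitation; Kd binned A ≤10 nM, B 10–100, C 100–1000, D >1000 nM.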
On the technique in general: Microscale thermophoresis detects binding through changes in fluorescence in a small temperature gradient.

Experiment [2] deals with T1, KMT9. The experiment is described as follows: KMT9 thermal shift assay (SyproOrange). The class given is binding. A digest of the protocol: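 Recombinant KMT9 was incubated with compound and SyproOrange at 25° C in 50 mM BTP pH 8.5, 1 mM MgCl2, 1 mM DTT. It was then heated from 20° C to 95° C at 1° C per 15 s with fluorescence read each step. Tm came from a Boltzmann sigmoidal fit; ΔTm relative to DMSO control, binned in 5 K ranges.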

In experiment [3] the target is T1, KMT9. The experiment is described as follows: KMT9 methyltransferase inhibition assay, MTaseGlo luminescence (from entry 155). Particulars: 100 nM KMT9, 5 μM ETF1, 1 μM SAM. The class given is biochemical. As to the method: For the compounds from entry 155 on in Table 1, the following procedure was used to determine IC50 values: The assay was carried out in white, opaque 384-well OptiPlates (PerkinElmer). For IC50 determination, a 2.5x substrate mix (final assay concentrations: 5 μM ETF1, 1 μM SAM and 1x MTaseGlo Reagent), a 2.5x KMT9 solution (final assay concentration 100 nM) and a 5x inhibitor stock 1:1 dilution series (concentration according to the desired range; dilution series was prepared in assay buffer containing 10% DMSO to obtain a final DMSO concentration of 2% in the assay) were prepared. 2 μL of 5x inhibitor stock and 4 μL of 2.5x KMT9 were pipetted, the plate was spun down at 700 rpm for 1 min using a Hettich UNIVERSAL 320 centrifuge and incubated at room temperature (around 25° C.) for 15 min. The reaction was initiated by adding 4 μL of 2.5x substrate mix, the plate was spun down as described before and incubated at 30° C. for 2 h. Afterwards, 10 μL of 2× MTaseGlo Detection solution was added, the plate was centrifuged as described above and incubated for 60 min at room temperature. Luminescence was measured using a PerkinElmer EnVision 2102 Multilabel Reader. Calculation of inhibition and data fitting was carried out as for entries 1-154. described above.
For the results of the methyltransferase inhibition assay shown as “Inhibition” in Table 1, “I” represents an IC50 less than 0.1 μM, “II” represents an IC50 equal or higher than 0.1 μM and less than 1 μM, “III” represents an IC50 equal or higher than 1 µM and less than 10 µM and “IV” represents an IC50 equal or higher than 10 µM

The target of experiment [4] is T1, KMT9. As to the kind of experiment: KMT9 methyltransferase inhibition assay, 3H-SAM scintillation (entries 1-154). In kind it is biochemical. Particulars: entries 1-154: 3H-SAM assay, 25 nM KMT9, 5 μM ETF1. Summed up:
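Final 25 nM KMT9, 5 μM ETF1 (residues 140-275), 0.3 μM 3H-SAM plus 0.7 μM SAM in pH 8.5 BTP buffer, 2 h at 30° C. TCA-quenched, filter-washed, methylation counted by scintillation; % inhibition vs DMSO and no-enzyme controls, IC50 from four-parameter fit.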

[5] abbreviates: His-tag labelled KMT9 20 nM, Kd class, read-out: MST.
Setting [6] is: ΔTm class, 500 uM compound, 2 μM KMT9, read-out: Thermal shift.
Where [7] appears, read: IC50 class, MTaseGlo procedure (entries from 155 on), read-out: Inhibition.
Where [8] appears, read: microscale thermophoresis, His-tag labelled KMT9 (20 nM), read-out: MST.
The mark [9] stands for this setting: ΔTm, 500 µM compound, 2 μM KMT9, 5X SO, read-out: Thermal shift.

Regarding `CN1CCC([C@H]2C[C@@H](n3cc(-c4ccn(Cc5ccccc5)n4)c4cnc(Cl)nc43)[C@H](O)[C@@H]2O)CC1` [Compound 491, (1R,2S,3R,5R)-3-(5-(1-benzyl-1H-pyrazol-3-yl)-2-chloro-7H-pyrrolo[2,3-d]pyrimidin-7-yl)-5-(1-methylpiperidin-4-yl)cyclopentane-1,2-diol], on KMT9 [1] (setting [5]), the Kd was in the range of 100 to 1000 nM. For the same compound, the ΔTm at 500 µM on KMT9 [2] (setting [6]) lay within 15 to 20 °C. Moreover, the IC50 at KMT9 [3] (setting [7]) is 100 to 1000 nM.

On to `O[C@@H]1[C@H](O)[C@@H](C2CCNCC2)C[C@H]1n1cc(-c2ccn(Cc3ccccc3)n2)c2cnc(Cl)nc21` [Compound 522, (1R,2S,3R,5R)-3-(5-(1-benzyl-1H-pyrazol-3-yl)-2-chloro-7H-pyrrolo[2,3-d]pyrimidin-7-yl)-5-(piperidin-4-yl)cyclopentane-1,2-diol], for which, on KMT9 [1] (setting [8]), the Kd lay within 100 to 1000 nM. Further, the ΔTm at 500 µM on KMT9 [2] (setting [9]) was in the range of 15 to 20 °C. For the same compound, the IC50 at KMT9 [3] (from entry 155: MTaseGlo assay, read-out: Inhibition) lay within 1000 to 10000 nM.

Regarding `Nc1nc(Cl)nc2c1ccn2[C@@H]1C[C@H](c2cccc(CN3CCC3)c2)[C@@H](O)[C@H]1O` [Compound 672, (1R,2S,3R,5R)-3-(4-amino-2-chloro-7H-pyrrolo[2,3-d]pyrimidin-7-yl)-5-(3-(azetidin-1-ylmethyl)phenyl)cyclopentane-1,2-diol], the Kd on KMT9 [1] (His-tag labelled KMT9 20 nM, read-out: MST (Kd)) lay in the range of 10 to 100 nM. The ΔTm at 500 µM on KMT9 [2] (500 µM compound, 2 μM KMT9, read-out: Thermal shift (ΔTm)) was 10 to 15 °C. The IC50 at KMT9 [3] (MTaseGlo procedure (entries from 155), read-out: Inhibition (IC50)) is 100 to 1000 nM.

Take `Nc1ncnc2c1ccn2[C@@H]1C[C@H](c2cccc(-c3cnsc3)c2)[C@@H](O)[C@H]1O` [Compound 650, (1R,2S,3R,5R)-3-(4-amino-7H-pyrrolo[2,3-d]pyrimidin-7-yl)-5-(3-(isothiazol-4-yl)phenyl)cyclopentane-1,2-diol]: the Kd on KMT9 [1] (setting [5]) is 100 to 1000 nM. The ΔTm at 500 µM at KMT9 [2] (setting [6]) is at most 10 °C. For the same compound, at KMT9 [3] (setting [7]), the IC50 was above 10000 nM.

`O[C@@H]1[C@H](O)[C@@H](C2CCCN(CC3CC3)C2)C[C@H]1n1cc(-c2nc(Cc3ccccc3)cs2)c2cnc(Cl)nc21` (stereo partly drawn) [Compound 516, (1R,2S,3R,5R)-3-(5-(4-benzylthiazol-2-yl)-2-chloro-7H-pyrrolo[2,3-d]pyrimidin-7-yl)-5-(1-(cyclopropylmethyl)piperidin-3-yl)cyclopentane-1,2-diol]: on KMT9 [1] (setting [5]), the Kd is 100 to 1000 nM. Besides, the IC50 at KMT9 [3] (setting [7]) was 1000 to 10000 nM.

As for `Nc1ncnc2c1c(Br)cn2[C@@H]1C[C@H](CNCCCNCCc2ccc(F)cc2F)[C@@H](O)[C@H]1O` [334 (238), (1R,2S,3R,5R)-3-(4-amino-5-bromo-7H-pyrrolo[2,3-d]pyrimidin-7-yl)-5-(((3-((2,4-difluorophenethyl)amino)propyl)amino)methyl) cyclopentane-1,2-diol], at KMT9 [1] (setting [8]), the Kd fell in the range of 10 to 100 nM. At KMT9 [2] (setting [9]), the ΔTm at 500 µM lay within 15 to 20 °C. The IC50 on KMT9 [4] lay within 100 to 1000 nM.

For `CCc1cn([C@@H]2C[C@H](CNCCCNCCc3cccc(Oc4ccccc4)c3)[C@@H](O)[C@H]2O)c2ncnc(N)c12` [459 (332), (1R,2S,3R,5R)-3-(4-Amino-5-ethyl-7H-pyrrolo[2,3-d]pyrimidin-7-yl)-5-(((3-((3-phenoxyphenethyl)amino)propyl)amino)methyl) cyclopentane-1,2-diol], the Kd at KMT9 [1] (setting [8]) lay within 10 to 100 nM. Moreover, the ΔTm at 500 µM at KMT9 [2] (setting [9]) lay within 15 to 20 °C. The IC50 against KMT9 [4] was in the range of 1000 to 10000 nM.

Take `CNc1ncnc2c1ccn2[C@@H]1C[C@H](CN(CCCNCCc2ccccc2)c2ccn(C)n2)[C@@H](O)[C@H]1O` [443 (315), (1R,2S,3R,5R)-3-[4-(Methylamino)pyrrolo[2,3-d]pyrimidin-7-yl]-5-{[(1-methylpyrazol-3-yl)({3-[(2-phenylethyl)amino]propyl})amino]methyl}cyclopentane-1,2-diol]: at KMT9 [1] (setting [8]), the Kd is above 1000 nM. Besides, the ΔTm at 500 µM at KMT9 [2] (setting [9]) is at most 10 °C. Besides, on KMT9 [4], the IC50 is above 10000 nM.

With `CNc1ncnc2c1ccn2[C@@H]1C[C@H](CN(CCCNCCc2ccccc2)c2cnn(C)c2)[C@@H](O)[C@H]1O` [441 (313), (1S,2R,3R,5R)-3-(((1-Methyl-1H-pyrazol-4-yl)(3-(phenethylamino)propyl)amino)methyl)-5-(4-(methylamino)-7H-pyrrolo[2,3-d]pyrimidin-7-yl) cyclopentane-1,2-diol], the Kd at KMT9 [1] (setting [8]) was above 1000 nM. Also, the ΔTm at 500 µM at KMT9 [2] (setting [9]) is at most 10 °C. The same compound showed an IC50 against KMT9 [4] above 10000 nM.

As to `Nc1ncnc2c1c(Br)cn2[C@@H]1C[C@H](C(=O)NCCCNCCc2ccccc2)[C@@H](O)[C@H]1O` [452 (324), (1S,2R,3S,4R)-4-(4-Amino-5-bromo-7H-pyrrolo[2,3-d]pyrimidin-7-yl)-2,3-dihydroxy-N-(3-(phenethylamino)propyl) cyclopentane-1-carboxamide], the Kd at KMT9 [1] (setting [8]) was 10 to 100 nM. On KMT9 [2] (setting [9]), the ΔTm at 500 µM lay in the range of 15 to 20 °C. This compound also showed an IC50 against KMT9 [4] of 100 to 1000 nM.

In the case of `CNc1ncnc2c1ccn2[C@@H]1C[C@H](C[S+]([O-])CCNCCc2ccccc2)[C@@H](O)[C@H]1O` (stereo partly drawn) [432 (304), (1R,2S,3R,5S)-3-(4-(Methylamino)-7H-pyrrolo[2,3-d]pyrimidin-7-yl)-5-(((2-(phenethylamino)ethyl)sulfinyl)methyl) cyclopentane-1,2-diol], on KMT9 [1] (setting [8]), the Kd was above 1000 nM. For the same compound, the ΔTm at 500 µM on KMT9 [2] (setting [9]) is at most 10 °C. The compound further yielded an IC50 on KMT9 [4] above 10000 nM.

For the compound `C=Cc1cn([C@@H]2C[C@H](CNCCCNCCc3ccccc3)[C@@H](O)[C@H]2O)c2ncnc(Cl)c12` [Compound 612, (1R,2S,3R,5R)-3-{4-chloro-5-ethenylpyrrolo[2,3-d]pyrimidin-7-yl}-5-[{{3-[(2-phenylethyl)amino]propyl}amino)methyl]cyclopentane-1,2-diol], the Kd at KMT9 [1] (setting [8]) was above 1000 nM. At KMT9 [2] (setting [9]), the ΔTm at 500 µM is at most 10 °C. The IC50 on KMT9 [4] was above 10000 nM.

As for `CNc1ncnc2c1ccn2[C@@H]1C[C@H](CNCCC(=O)NCCc2ccccc2)[C@@H](O)[C@H]1O` (racemic) [434 (306), 3-((((1R,2R,3S,4R)-2,3-dihydroxy-4-(4-(methylamino)-7H-pyrrolo[2,3-d]pyrimidin-7-yl)cyclopentyl)methyl)amino)-N-phenethylpropanamide and 3-((((1S,2R,3S,4R)-2,3-dihydroxy-4-(4-(methylamino)-7H-pyrrolo[2,3-d]pyrimidin-7-yl)cyclopentyl)methyl)amino)-N-phenethylpropanamide], on KMT9 [1] (setting [8]), the Kd is above 1000 nM. The ΔTm at 500 µM on KMT9 [2] (setting [9]) was at most 10 °C. The IC50 against KMT9 [4] was above 10000 nM.

As to `CN(C)C(=O)[C@H]1C[C@@H](n2cc3c4c(ncnc42)NCCC3)[C@H](O)[C@@H]1O` [Compound 625, (1S,2R,3S,4R)-2,3-Dihydroxy-N,N-dimethyl-4-(6,7,8,9-tetrahydro-2H-2,3,5,6-tetraazabenzo[cd]azulen-2-yl)cyclopentane-1-carboxamide], the Kd on KMT9 [1] (setting [8]) was above 1000 nM. Also, the ΔTm at 500 µM at KMT9 [2] (setting [9]) is at most 10 °C. The compound further returned an IC50 at KMT9 [4] above 10000 nM.
